What was measured:
[1] = system: MRSA 562; test: MIC by agar incorporation method, MRSA 562; type: cell-based, Methicillin Resistant Staphylococcus aureus; parameters: unit not given here; conditions: Mueller Hinton agar, 10^4 CFU/spot, 24 hours
[2] = system: Ent. faecalis ATCC 29212; test: MIC by agar incorporation method, E.faecalis 29212; type: cell-based, Enterococcus faecalis; parameters: unit not given here; conditions: Mueller Hinton agar, 10^4 CFU/spot, 18 hours
From the text: 3) Ent. faecalis ATCC 29212—Enterococcus faecalis ATCC 29212

[3] = system: Strep.pyog. ATCC 19615; test: MIC by agar incorporation method, S.pyogenes 19615; type: cell-based, Streptococcus pyogenes; parameters: unit not given here; conditions: Mueller Hinton agar, 10^4 CFU/spot, 18 hours
From the text: 6) Strep.pyog. ATCC 19615—Streptococcus pyogenes

[4] = system: S. pneum AB 34; test: MIC by agar incorporation method, S. pneum AB 34; type: cell-based, Streptococcus pneumoniae; parameters: unit not given here; conditions: Mueller Hinton agar, 10^4 CFU/spot, 18 hours
[5] = system: S.aureus ATCC 25923; test: MIC by agar incorporation method, S.aureus 25923; type: cell-based, Staphylococus aureus; parameters: unit not given here; conditions: Mueller Hinton agar, 10^4 CFU/spot, 18 hours
[6] = system: MRSA 33; test: MIC by agar incorporation method, MRSA 33; type: cell-based, Methicillin Resistant Staphylococcus aureus; parameters: unit not given here; conditions: Mueller Hinton agar, 10^4 CFU/spot, 24 hours
[7] = system: Strep. pne. ATCC 6303; test: MIC by agar incorporation method, S. pneum 6303; type: cell-based, Streptococcus pneumoniae; conditions: Mueller Hinton agar, 10^4 CFU/spot, 18 hours
From the text: 5) Strep. pne. ATCC 6303—Streptococcus pneumoniae ATCC 6303

[8] = system: VRE 6A; test: MIC by agar incorporation method, VRE 6A; type: cell-based, Enterococcus faecium; parameters: unit not given here; conditions: Mueller Hinton agar, 10^4 CFU/spot, 18 hours
From the text: 4) Ent. faecium […]—Enterococcus faecium 6A Van®, Cipro®

[9] = system: MRSA 15187; test: MIC by agar incorporation method, MRSA 15187; type: cell-based, Methicillin Resistant Staphylococcus aureus; parameters: unit not given here; conditions: Mueller Hinton agar, 10^4 CFU/spot, 24 hours
From the text: 2) MRSA 15187—Methicillin Resistant Staphylococcus aureus

SMILES	In Vitro (MIC) MRSA 562 [1]	In Vitro (MIC) E.faecalis 29212 [2]	In Vitro (MIC) S.pyogenes 19615 [3]	In Vitro (MIC) S. pneum AB 34 [4]	In Vitro (MIC) S.aureus 25923 [5]	In Vitro (MIC) MRSA 33 [6]	In Vitro (MIC) S. pneum 6303 [7] [µg/mL]	In Vitro (MIC) VRE 6A [8]	In Vitro (MIC) MRSA 15187 [9]
CC(=O)NC[C@H]1CN(c2ccc(N3C(C)CN(C(=O)Cc4cccs4)CC3C)c(F)c2)C(=O)O1 (stereo partly drawn) [Compound No. 66, (S)-N-[[3-[3-Fluoro-4-[N-1-[2,6-dimethyl-4-(2-thienylacetyl)]-piperazinyl]phenyl]-2-oxo-5-oxazolidinyl]methyl]acetamide]	8	8	16	16	8	8	16	8	8
CC(=O)NC[C@H]1CN(c2ccc(N3CCN(C(=O)c4ccc([N+](=O)[O-])s4)C(C)C3)c(F)c2)C(=O)O1 (stereo partly drawn) [Compound No. 70, (S)-N-[[3-[3-Fluoro-4-[N-1-[3-methyl-4-{2-thienoyl-(5-nitro)}]-piperazinyl]phenyl]-2-oxo-5-oxazolidinyl]methyl]acetamide]	<0.25	2	<0.25	4	<0.25	<0.25	4	1	0.5
CC(=O)NC[C@H]1CN(c2ccc(N3CCC(N(C)C(=O)c4ccc([N+](=O)[O-])o4)C(C)C3)c(F)c2)C(=O)O1 (stereo partly drawn) [Compound No. 74, (S)-N-[[3-[3-Fluoro-4-[[3-methyl-4-{N-methyl-2-furoyl-(5-nitro)}]-aminopiperidine-1-y]phenyl]-2-oxo-5-oxazolidinyl]methyl]acetamide]	<0.5	1	8	8	<0.5	1	8	1	<0.5
CCN(C(=O)c1ccc([N+](=O)[O-])s1)C1CCN(c2ccc(N3C[C@H](CNC(C)=O)OC3=O)cc2F)CC1 [Compound No. 79, (S)-N-[[3-[3-Fluoro-4-[4-{N-ethyl-2-thienoyl-(5-nitro)}aminopiperidine-1-yl]phenyl]-2-oxo-5-oxazolidinyl]methyl]acetamide]	0.5	2	0.5	4	0.5	0.5	4	2	0.5
CCN(C(=O)c1ccc([N+](=O)[O-])o1)C1CCN(c2ccc(N3C[C@H](CNC(C)=O)OC3=O)cc2F)CC1 [Compound No. 80, (S)-N-[[3-[3-Fluoro-4-[4-{N-ethyl-2-furoyl-(5-nitro)}aminopiperidine-1-yl]phenyl]-2-oxo-5-oxazolidinyl]methyl]acetamide]	0.5	1	2	4	1	1	4	1	1
CC(=O)NC[C@H]1CN(c2ccc(N3CCC(N(C)Cc4ccc([N+](=O)[O-])s4)C3)c(F)c2)C(=O)O1 (stereo partly drawn) [Compound No. 90, (S)-N-[[3-[3-Fluoro-4-[N-1,3-[N-methyl[N-{2-thiophenyl(5-nitro)methyl}]aminopyrodinyl]phenyl]]-2-oxo-5-oxazolidinyl]methyl]acetamide]	2	4	2	4	4	4	4	4	2
CC(=O)NC[C@H]1CN(c2ccc(N3CCC(N(C)C(=O)c4ccc([N+](=O)[O-])s4)C3)c(F)c2)C(=O)O1 (stereo partly drawn) [Compound No. 91]	<0.25	0.5	<0.25	1	<0.25	<0.25	1	1	<0.25
CC(=O)NC[C@H]1CN(c2ccc(N3CCC(N(C)C(=O)c4ccc([N+](=O)[O-])o4)C3)c(F)c2)C(=O)O1 (stereo partly drawn) [Compound No. 92]	<0.25	<0.25	1	1	1	0.5	1	<0.25	0.5

More lines, now with the values ahead:

In Vitro (MIC) MRSA 562 [1]	In Vitro (MIC) E.faecalis 29212 [2]	In Vitro (MIC) S.pyogenes 19615 [3]	In Vitro (MIC) S. pneum AB 34 [4]	In Vitro (MIC) S.aureus 25923 [5]	In Vitro (MIC) MRSA 33 [6]	In Vitro (MIC) S. pneum 6303 [7] [µg/mL]	In Vitro (MIC) VRE 6A [8]	In Vitro (MIC) MRSA 15187 [9]	SMILES
4	4	2	4	4	4	4	4	4	CC(=O)NC[C@H]1CN(c2ccc(N3CCN(C(=O)Cc4cccs4)C(C)C3)c(F)c2)C(=O)O1 (stereo partly drawn) [Compound No. 68, (S)-N-[[3-[3-Fluoro-4-[N-1-[3-methyl-4-{2-thienylacetyl-}]-piperazinyl]phenyl]-2-oxo-5-oxazolidinyl]methyl]acetamide]
0.5	0.5	2	8	1	1	8	0.5	1	CC(=O)NC[C@H]1CN(c2ccc(N3CCN(C(=O)c4ccc([N+](=O)[O-])o4)C(C)C3)c(F)c2)C(=O)O1 (stereo partly drawn) [Compound No. 69, (S)-N-[[3-[3-Fluoro-4-[N-1-[3-methyl-4-{2-furoyl-(5-nitro)}]-piperazinyl]phenyl]-2-oxo-5-oxazolidinyl]methyl]acetamide]
2	>8	>8	>8	4	4	>8	>8	2	CC(=O)NC[C@H]1CN(c2ccc(N3CCN(Cc4oc(C=O)cc4C)CC3)c(F)c2)C(=O)O1 [Compound No. 71]
4	4	8	8	4	4	8	4	4	CCN(Cc1ccc([N+](=O)[O-])s1)C1CCN(c2ccc(N3C[C@H](CNC(C)=O)OC3=O)cc2F)CC1 [Compound No. 83, (S)-N-[[3-[3-Fluoro-4-[4-{N-ethyl-N-2-thiophenyl-(5-nitro)methyl}-aminopiperidine-1-yl]phenyl]-2-oxo-5-oxazolidinyl]methyl]acetamide]
2	1	1	2	2	2	2	2	2	CC(=O)NC[C@H]1CN(c2ccc(N3CCC(NCc4ccc([N+](=O)[O-])s4)CC3)c(F)c2)C(=O)O1 [Compound No. 84, (S)-N-[[3-[3-Fluoro-4-[4-{N-thienyl-(5-nitro)methyl}-aminopiperidine-1-yl]phenyl]-2-oxo-5-oxazolidinyl]methyl]acetamide]
4	>8	2	4	4	4	4	>8	4	CC(=O)NC[C@H]1CN(c2ccc(N3CCC(N=Cc4ccc([N+](=O)[O-])o4)CC3)c(F)c2)C(=O)O1 [Compound No. 85, (S)-N-[[3-[3-Fluoro-4-[4-{2-furyl-(5-nitro)methylene]-aminopiperidine-1-yl]phenyl]-2-oxo-5-oxazolidinyl]methyl]acetamide]
1	0.5	<0.25	2	1	1	2	0.5	1	CC(=O)NC[C@H]1CN(c2ccc(N3CCC(NCc4ccc([N+](=O)[O-])o4)CC3)c(F)c2)C(=O)O1 [Compound No. 86, (S)-N-[[3-[3-Fluoro-4-[4-{N-2-furyl-(5-nitro)methyl}-aminopiperidine-1-yl]phenyl]-2-oxo-5-oxazolidinyl]methyl]acetamide]
